Data: the NIST ThermoML archive (doi:10.1016/j.tca.2013.08.002)
± gives the expanded uncertainty stated by the source.

Test: mn = molality of the nth substance listed, in mol/kg
Conditions: 101 kPa, Liquid; for speed of sound: Frequency=1.999 MHz, Sing-around technique in a fixed-path interferometer; for mass density: Vibrating tube method

C[N+](C)(C)CC(=O)[O-] [(trimethylammonio)acetate] + O
speed of sound (288.15 K, m1 = 0.0482): 1471.1 ± 10 m/s | speed of sound (288.15 K, m1 = 0.1063): 1477.4 ± 10 m/s | speed of sound (288.15 K, m1 = 0.5027): 1517.6 ± 10 m/s | speed of sound (288.15 K, m1 = 1.002): 1562.8 ± 10 m/s | speed of sound (288.15 K, m1 = 1.504): 1599.7 ± 10 m/s | speed of sound (288.15 K, m1 = 2.005): 1628.1 ± 10 m/s | speed of sound (288.15 K, m1 = 2.519): 1648.9 ± 10 m/s | speed of sound (288.15 K, m1 = 3.008): 1658.3 ± 10 m/s | mass density (288.15 K, m1 = 0.0482): 1000.1 ± 2 kg/m3 | mass density (288.15 K, m1 = 0.1063): 1001.2 ± 2 kg/m3 | mass density (288.15 K, m1 = 0.5027): 1008.5 ± 2 kg/m3 | mass density (288.15 K, m1 = 1.002): 1016.8 ± 2 kg/m3 | mass density (288.15 K, m1 = 1.504): 1024.3 ± 2 kg/m3 | mass density (288.15 K, m1 = 2.005): 1030.9 ± 2 kg/m3 | mass density (288.15 K, m1 = 2.519): 1036.6 ± 2 kg/m3 | mass density (288.15 K, m1 = 3.008): 1041.8 ± 2 kg/m3 | speed of sound (293.15 K, m1 = 0.0482): 1487.7 ± 10 m/s | speed of sound (293.15 K, m1 = 0.1063): 1493.8 ± 10 m/s | speed of sound (293.15 K, m1 = 0.5027): 1535.4 ± 10 m/s | speed of sound (293.15 K, m1 = 1.002): 1580.7 ± 10 m/s | speed of sound (293.15 K, m1 = 1.504): 1619.5 ± 10 m/s | speed of sound (293.15 K, m1 = 2.005): 1649.8 ± 10 m/s | speed of sound (293.15 K, m1 = 2.519): 1670.4 ± 10 m/s | speed of sound (293.15 K, m1 = 3.008): 1680.1 ± 10 m/s | mass density (293.15 K, m1 = 0.0482): 999.1 ± 2 kg/m3 | mass density (293.15 K, m1 = 0.1063): 1000.2 ± 2 kg/m3 | mass density (293.15 K, m1 = 0.5027): 1007.2 ± 2 kg/m3 | mass density (293.15 K, m1 = 1.002): 1015.1 ± 2 kg/m3 | mass density (293.15 K, m1 = 1.504): 1022.1 ± 2 kg/m3 | mass density (293.15 K, m1 = 2.005): 1028.1 ± 2 kg/m3 | mass density (293.15 K, m1 = 2.519): 1033.6 ± 2 kg/m3 | mass density (293.15 K, m1 = 3.008): 1038.5 ± 2 kg/m3 | speed of sound (298.15 K, m1 = 0.0482): 1501.6 ± 10 m/s | speed of sound (298.15 K, m1 = 0.1063): 1507.6 ± 10 m/s | speed of sound (298.15 K, m1 = 0.5027): 1547.2 ± 10 m/s | speed of sound (298.15 K, m1 = 1.002): 1593.1 ± 10 m/s | speed of sound (298.15 K, m1 = 1.504): 1630 ± 10 m/s | speed of sound (298.15 K, m1 = 2.005): 1656.8 ± 10 m/s | speed of sound (298.15 K, m1 = 2.519): 1674.5 ± 10 m/s | speed of sound (298.15 K, m1 = 3.008): 1698.9 ± 10 m/s | mass density (298.15 K, m1 = 0.0482): 997.9 ± 2 kg/m3 | mass density (298.15 K, m1 = 0.1063): 998.9 ± 2 kg/m3 | mass density (298.15 K, m1 = 0.5027): 1005.6 ± 2 kg/m3 | mass density (298.15 K, m1 = 1.002): 1013.1 ± 2 kg/m3 | mass density (298.15 K, m1 = 1.504): 1019.9 ± 2 kg/m3 | mass density (298.15 K, m1 = 2.005): 1025.8 ± 2 kg/m3 | mass density (298.15 K, m1 = 2.519): 1031 ± 2 kg/m3 | mass density (298.15 K, m1 = 3.008): 1035.4 ± 2 kg/m3 | speed of sound (303.15 K, m1 = 0.0482): 1514.1 ± 10 m/s | speed of sound (303.15 K, m1 = 0.1063): 1520 ± 10 m/s | speed of sound (303.15 K, m1 = 0.5027): 1558.6 ± 10 m/s | speed of sound (303.15 K, m1 = 1.002): 1602.3 ± 10 m/s | speed of sound (303.15 K, m1 = 1.504): 1639.6 ± 10 m/s | speed of sound (303.15 K, m1 = 2.005): 1669.8 ± 10 m/s | speed of sound (303.15 K, m1 = 2.519): 1689.7 ± 10 m/s | speed of sound (303.15 K, m1 = 3.008): 1715.2 ± 10 m/s | mass density (303.15 K, m1 = 0.0482): 996.6 ± 2 kg/m3 | mass density (303.15 K, m1 = 0.1063): 997.6 ± 2 kg/m3 | mass density (303.15 K, m1 = 0.5027): 1004.2 ± 2 kg/m3 | mass density (303.15 K, m1 = 1.002): 1011.6 ± 2 kg/m3 | mass density (303.15 K, m1 = 1.504): 1018 ± 2 kg/m3 | mass density (303.15 K, m1 = 2.005): 1023.5 ± 2 kg/m3 | mass density (303.15 K, m1 = 2.519): 1028.4 ± 2 kg/m3 | mass density (303.15 K, m1 = 3.008): 1032.8 ± 2 kg/m3 | speed of sound (308.15 K, m1 = 0.0482): 1524.2 ± 10 m/s | speed of sound (308.15 K, m1 = 0.1063): 1529.9 ± 10 m/s | speed of sound (308.15 K, m1 = 0.5027): 1567.5 ± 10 m/s | speed of sound (308.15 K, m1 = 1.002): 1610.2 ± 10 m/s | speed of sound (308.15 K, m1 = 1.504): 1648.1 ± 10 m/s | speed of sound (308.15 K, m1 = 2.005): 1679.8 ± 10 m/s | speed of sound (308.15 K, m1 = 2.519): 1700 ± 10 m/s | speed of sound (308.15 K, m1 = 3.008): 1726.5 ± 10 m/s | mass density (308.15 K, m1 = 0.0482): 994.9 ± 2 kg/m3 | mass density (308.15 K, m1 = 0.1063): 995.9 ± 2 kg/m3 | mass density (308.15 K, m1 = 0.5027): 1002.5 ± 2 kg/m3 | mass density (308.15 K, m1 = 1.002): 1009.9 ± 2 kg/m3 | mass density (308.15 K, m1 = 1.504): 1016.4 ± 2 kg/m3 | mass density (308.15 K, m1 = 2.005): 1022 ± 2 kg/m3 | mass density (308.15 K, m1 = 2.519): 1027.1 ± 2 kg/m3 | mass density (308.15 K, m1 = 3.008): 1031.2 ± 2 kg/m3 | speed of sound (313.15 K, m1 = 0.0482): 1533.4 ± 10 m/s | speed of sound (313.15 K, m1 = 0.1063): 1538.8 ± 10 m/s | speed of sound (313.15 K, m1 = 0.5027): 1574.2 ± 10 m/s | speed of sound (313.15 K, m1 = 1.002): 1615.7 ± 10 m/s | speed of sound (313.15 K, m1 = 1.504): 1652.3 ± 10 m/s | speed of sound (313.15 K, m1 = 2.005): 1682.8 ± 10 m/s | speed of sound (313.15 K, m1 = 2.519): 1705.9 ± 10 m/s | speed of sound (313.15 K, m1 = 3.008): 1737.1 ± 10 m/s | mass density (313.15 K, m1 = 0.0482): 993.1 ± 2 kg/m3 | mass density (313.15 K, m1 = 0.1063): 994.1 ± 2 kg/m3 | mass density (313.15 K, m1 = 0.5027): 1000.7 ± 2 kg/m3 | mass density (313.15 K, m1 = 1.002): 1007.9 ± 2 kg/m3 | mass density (313.15 K, m1 = 1.504): 1014.4 ± 2 kg/m3 | mass density (313.15 K, m1 = 2.005): 1019.9 ± 2 kg/m3 | mass density (313.15 K, m1 = 2.519): 1025 ± 2 kg/m3 | mass density (313.15 K, m1 = 3.008): 1029.1 ± 2 kg/m3 | speed of sound (318.15 K, m1 = 0.0482): 1540.8 ± 10 m/s | speed of sound (318.15 K, m1 = 0.1063): 1546 ± 10 m/s | speed of sound (318.15 K, m1 = 0.5027): 1580.3 ± 10 m/s | speed of sound (318.15 K, m1 = 1.002): 1620.9 ± 10 m/s | speed of sound (318.15 K, m1 = 1.504): 1656.7 ± 10 m/s | speed of sound (318.15 K, m1 = 2.005): 1688.3 ± 10 m/s | speed of sound (318.15 K, m1 = 2.519): 1713.8 ± 10 m/s | speed of sound (318.15 K, m1 = 3.008): 1743.7 ± 10 m/s | mass density (318.15 K, m1 = 0.0482): 991.1 ± 2 kg/m3 | mass density (318.15 K, m1 = 0.1063): 992.1 ± 2 kg/m3 | mass density (318.15 K, m1 = 0.5027): 998.7 ± 2 kg/m3 | mass density (318.15 K, m1 = 1.002): 1006 ± 2 kg/m3 | mass density (318.15 K, m1 = 1.504): 1012.4 ± 2 kg/m3 | mass density (318.15 K, m1 = 2.005): 1018 ± 2 kg/m3 | mass density (318.15 K, m1 = 2.519): 1022.8 ± 2 kg/m3 | mass density (318.15 K, m1 = 3.008): 1027.3 ± 2 kg/m3
